Measured values reported in article PMC9465256, “Discovering monoacylglycerol lipase inhibitors by a combination of fluorogenic substrate assay and activity-based protein profiling” (Frontiers in Pharmacology, 2022).

Legend:
Assay type in all cases: biochemical
human MAGL = biological target: T1, human MAGL (Homo sapiens, UniProt Q99685); assay: MAGL activity assay (AA-HNA fluorogenic substrate); conditions: read-out: MAGL Inhibition (%)
T1 construct: expressed in transfected cells; host or cells: HEK293T (transient transfection; membrane fraction)
T1 sequence (Q99685 1-303): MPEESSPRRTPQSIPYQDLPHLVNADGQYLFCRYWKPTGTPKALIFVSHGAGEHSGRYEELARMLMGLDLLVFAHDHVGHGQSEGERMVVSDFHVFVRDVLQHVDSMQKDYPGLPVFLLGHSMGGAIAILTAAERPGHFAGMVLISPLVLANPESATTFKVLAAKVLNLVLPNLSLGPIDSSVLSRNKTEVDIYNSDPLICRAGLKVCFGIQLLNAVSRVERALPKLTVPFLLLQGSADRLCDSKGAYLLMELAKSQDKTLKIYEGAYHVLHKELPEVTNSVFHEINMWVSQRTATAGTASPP
Experimental: (§1) HEK293T cells were cultured at 37°C under 5% CO2 in a DMEM medium with stable glutamine and phenolred, containing 10% fetal bovine serum (FBS, Gibco), penicillin, and streptomycin. The cells were passaged every 2–3 days by resuspension in the medium at ∼90% confluence. The membranes used in this study were prepared from transiently transfected HEK293T cells. Briefly, 1 day prior to transfection, ∼10^7 cells were seeded in 15 cm plates, and then the cells were transfected by the addition of a mixture of polyethyleneimine and plasmid DNA (3:1, 60, and 20 µg) in 2 ml of medium (without serum). Of note, the empty pcDNA3.1 vector was used in the Mock-control. After 24 h, the medium was removed and the cells were refreshed with fresh medium. After 72 h, the cells were harvested by suspending in 20 ml of medium, and the supernatant was removed by centrifugation for 10 min at 1,000 rpm. The cell pellet was flash frozen in liquid nitrogen and stored at −80°C until use. Subsequently, the cell pellets were suspended in lysis buffer (30 mM Tirs, pH 7.5, 1 mM MgCl2, 25 U/ml Benzonase), which was homogenized by sonication (3 × 10 bursts) and incubated for 30 min on ice. The membrane fractions overexpressing MAGL/ABHD6/ABHD12 were separated by ultracentrifuge (100,000 g, 30 min, 4 C). The protein concentration was determined with a Qubit protein assay (Invitrogen). The protein samples were quickly frozen in liquid nitrogen and stored at −80 C until use.
The MAGL activity assay is based on the hydrolysis of 2-arachidonoylglycerol-based fluorogenic substrate by MAGL-overexpressing membrane preparations from transiently transfected HEK293T cells. In brief, the reactions were performed in HEPES buffer (40 mM HEPES, pH 7.5, 0.1 mg/ml BSA) in black, flat bottom 96-well plates. […] After the incubation of the inhibitor-protein complex for 30 min, 10 µl of the fluorogenic substrate (AA-HNA, 200 µM) was added and fluorescence was measured in 1 min intervals for 30 min on a plate reader (BioTek). […] All the measurements were performed in N = 2, n = 2 for inhibitors and N = 2, n = 4 for controls with Z′ value ≥0.6. The slope is determined in 5–15 min for all the experiments.

human ABHD6 = biological target: T2, human ABHD6 (Homo sapiens, UniProt Q9BV23); assay: ABHD6 activity assay (AA-HNA fluorogenic substrate); conditions: read-out: ABHD6 Inhibition (%)
T2 construct: expressed in transfected cells; host or cells: HEK293T (transient transfection; membrane fraction)
T2 sequence (Q9BV23 1-337): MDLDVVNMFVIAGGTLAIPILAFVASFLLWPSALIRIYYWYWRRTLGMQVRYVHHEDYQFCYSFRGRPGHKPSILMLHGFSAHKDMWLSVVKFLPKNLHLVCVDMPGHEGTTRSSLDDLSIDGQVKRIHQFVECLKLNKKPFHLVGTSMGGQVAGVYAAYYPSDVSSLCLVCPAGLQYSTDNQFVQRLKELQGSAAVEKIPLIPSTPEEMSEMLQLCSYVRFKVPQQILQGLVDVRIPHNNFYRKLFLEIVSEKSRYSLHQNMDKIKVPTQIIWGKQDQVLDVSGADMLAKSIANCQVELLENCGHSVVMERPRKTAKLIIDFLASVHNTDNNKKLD
Experimental: as §1
The MAGL activity assay is based on the hydrolysis of 2-arachidonoylglycerol-based fluorogenic substrate by MAGL-overexpressing membrane preparations from transiently transfected HEK293T cells. In brief, the reactions were performed in HEPES buffer (40 mM HEPES, pH 7.5, 0.1 mg/ml BSA) in black, flat bottom 96-well plates. The final protein concentration of membrane fractions from overexpressing human MAGL HEK293T cells was 12.5 μg/ml 5 µl of inhibitors were added from×40 concentrated DMSO stocks in the 96-well plate containing 145 µl assay buffer, followed by the addition of 40 µl of the protein (12.5 μg/ml). After the incubation of the inhibitor-protein complex for 30 min, 10 µl of the fluorogenic substrate (AA-HNA, 200 µM) was added and fluorescence was measured in 1 min intervals for 30 min on a plate reader (BioTek). Final assay concentrations: 12.5 μg/ml MAGL, […], and […] in the total volume of 200 µl. All the measurements were performed in N = 2, n = 2 for inhibitors and N = 2, n = 4 for controls with Z′ value ≥0.6. The slope is determined in 5–15 min for all the experiments.
The ABHD6 activity assay is based on the same principle as the MAGL activity assay described earlier, but with human ABHD6 overexpressing membrane preparations at a final protein concentration of 50 μg/ml and 200 µM AA-HNA. Other conditions are the same as those of the MAGL activity assay.

human ABHD12 = biological target: T3, human ABHD12 (Homo sapiens, UniProt Q8N2K0); assay: ABHD12 activity by competitive ABPP with FP-TAMRA; conditions: read-out: ABHD12 Inhibition (%)
T3 construct: expressed in transfected cells; host or cells: HEK293T (transient transfection; membrane fraction)
T3 sequence (Q8N2K0 1-398): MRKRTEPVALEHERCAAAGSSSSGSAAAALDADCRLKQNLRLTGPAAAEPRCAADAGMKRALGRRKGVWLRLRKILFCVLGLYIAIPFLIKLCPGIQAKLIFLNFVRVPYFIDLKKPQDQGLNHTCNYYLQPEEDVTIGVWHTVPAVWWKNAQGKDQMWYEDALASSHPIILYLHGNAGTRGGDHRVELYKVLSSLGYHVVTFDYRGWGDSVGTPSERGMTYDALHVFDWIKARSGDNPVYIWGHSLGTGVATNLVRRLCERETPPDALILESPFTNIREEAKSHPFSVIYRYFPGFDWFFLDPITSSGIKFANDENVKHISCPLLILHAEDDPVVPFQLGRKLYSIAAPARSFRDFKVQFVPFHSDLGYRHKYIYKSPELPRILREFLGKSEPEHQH
Experimental: as §1
The ABHD12 activity assay is based on competitive activity-based protein profiling (ABPP) with human ABHD12 overexpressing membrane fractions. Briefly, the membrane proteome (1 mg/ml, 20 µl) was incubated at room temperature with 0.5 µl DMSO (vehicle) or inhibitor for 30 min. Subsequently, the samples were treated with the activity-based probe FP-TAMRA (250 nM, final concentration) for 20 min. The reactions were then quenched by 10 µl sample buffer (×4) (final concentrations: 60 mM Tris, pH 6.8, 2% (w/v) SDS, 10% (v/v) glycerol, 5% (v/v) β-mercaptoethanol, 0.01% (v/v) bromophenol blue). The samples were directly loaded and resolved on SDS-PAGE gel (10% acrylamide), which were then scanned using a ChemiDoc MP system (Cy3 settings, BioRad).

[1] = 100 µM, AA-HNA substrate assay, Supplementary Table 1
[2] = 100 µM, AA-HNA substrate assay, Supplementary Table 2
[3] = 100 µM compound, competitive ABPP with probe FP-TAMRA (250 nM)

Row | Compound | activity at 100 µM (human MAGL; [1]) [%] | activity at 100 µM (human ABHD6; [2]) [%] | activity at 100 µM (human ABHD12; [3]) [%] | further results
1 | O=C(O)c1cc(=O)[nH]c(=O)[nH]1 [compound 61, Orotic acid] | 101 | 113 | 97.2 | 
2 | C=CCc1ccc(O)c(-c2ccc(O)c(CC=C)c2)c1 [compound 39, Honokiol] | 111 | 83.9 | 104 | 
3 | C[C@@H]1O[C@@H](OC[C@H]2O[C@@H](Oc3c(-c4ccc(O)c(O)c4)oc4cc(O)cc(O)c4c3=O)[C@H](O)[C@@H](O)[C@@H]2O)[C@H](O)[C@H](O)[C@H]1O [compound 72, Rutin] | 75.9 | 119 | 84.3 | 
4 | CCn1cc(C(=O)O)c(=O)c2ccc(C)nc21 [compound 54, Nalidixic acid] | 143 | 100 | 82.2 | 
5 | O=c1c(O)c(-c2ccc(O)cc2O)oc2cc(O)cc(O)c12 [compound 51, Morin hydrate] |  |  |  | activity (human MAGL; [1]): 49.4%; activity (human ABHD6; [2]): 99.4%; activity (human ABHD12; [3]): 31.6%
6 | CC(=O)c1c(O)c(C)c(O)c2c1OC1=CC(=O)C(C(C)=O)C(=O)C12C [compound 3, D-Usnic Acid] |  |  |  | activity (human MAGL; [1]): 85.6%; activity (human ABHD6; [2]): 97.9%; activity (human ABHD12; [3]): 68.8%
7 | C=C1CC[C@@H]2[C@](C)(CO)[C@H](O)CC[C@@]2(C)[C@@H]1C/C=C1/C(=O)OC[C@H]1O [compound 8, Andrographolide] | 83.5 | 81.8 | 61.9 | 
8 | Cc1cc(=O)oc2cc(O)ccc12 [compound 5, 4-Methylumbelliferone] | 90.1 | 92.5 | 71 | 
9 | c1coc(CNc2ncnc3[nH]cnc23)c1 [compound 44, Kinetin] | 90.5 | 98.5 | 78.2 | 
10 | COc1ccc([C@@H]2CC(=O)c3c(O)cc(O[C@@H]4O[C@H](CO)[C@@H](O)[C@H](O)[C@H]4O[C@@H]4O[C@@H](C)[C@H](O)[C@@H](O)[C@H]4O)cc3O2)cc1O [compound 57, Neohesperidin] |  |  |  | activity (human MAGL; [1]): 86.8%; activity (human ABHD6; [2]): 98.7%; activity (human ABHD12; [3]): 75.6%
11 | O=c1c(O)c(-c2ccc(O)c(O)c2)oc2cc(O)ccc12 [compound 29, Fisetin] | 76.2 | 82.4 | 51.9 | 
12 | O=C1CCC[C@@H]2[C@H]3CCC[N+]4([O-])CCC[C@@H](CN12)[C@@H]34 (stereo partly drawn) [compound 63, Oxymatrine] | 99.9 | 102 | 91.3 | 
13 | O=C(O[C@@H]1Cc2c(O)cc(O)cc2O[C@@H]1c1cc(O)c(O)c(O)c1)c1cc(O)c(O)c(O)c1 [compound 2, (-)-Epigallocatechin Gallate] | 38.9 | 95 | 59.6 | 
14 | O=c1c(O)c(-c2ccc(O)cc2)oc2cc(O)cc(O)c12 [compound 43, Kaempferol] | 32.2 | 84.3 | 30.2 | 
15 | COc1ccc(-c2oc3c(CC=C(C)C)c(O[C@@H]4O[C@H](CO)[C@@H](O)[C@H](O)[C@H]4O)cc(O)c3c(=O)c2O[C@@H]2O[C@@H](C)[C@H](O)[C@@H](O)[C@H]2O)cc1 [compound 41, Icariin] | 84 | 84.6 | 66 | 
16 | Myricitrin [compound 53] |  |  |  | percent inhibition (human MAGL; [1]): 93.1%; percent inhibition of ABHD6 (human ABHD6; [2]): 105%; percent inhibition (human ABHD12; [3]): 70%
17 | COc1ccc(-c2cc(=O)c3c(OC)c(OC)c(OC)c(OC)c3o2)cc1OC [compound 58, Nobiletin] | 83.4 | 100 | 75.6 | 
18 | C[C@H]1[C@H](OC(=O)CCC(=O)O)O[C@@H]2O[C@@]3(C)CC[C@H]4[C@H](C)CC[C@@H]1[C@@]24OO3 [compound 11, Artesunate] | 106 | 46.5 | 56.2 | 
19 | COc1c(O)cc2c(c1O)[C@@H]1O[C@H](CO)[C@@H](O)[C@H](O)[C@H]1OC2=O [compound 16, Bergenin] | 124 | 110 | 88 | 
20 | O=c1cccc2n1C[C@@H]1CNC[C@H]2C1 [compound 25, Cytisine] |  |  |  | percent inhibition at 100 µM (human MAGL): 99%; percent inhibition of ABHD6 at 100 µM (human ABHD6): 104%; percent inhibition at 100 µM (human ABHD12): 87.9%
21 | O=c1cc(-c2ccccc2)oc2cc(O)c(O)c(O)c12 [compound 14, Baicalein] | 64.3 | 131 | 82.7 | 
22 | C=C1C(=O)O[C@H]2[C@H]1CC/C(C)=C/CC[C@@]1(C)O[C@@H]21 [compound 65, (-)-Parthenolide] |  |  |  | activity (human MAGL; [1]): 87.5%; activity (human ABHD6; [2]): 105%; activity (human ABHD12; [3]): 92.4%
23 | CC(C)(C)[C@]1(O)CC2OC(=O)CC23C(=O)OC2OC(=O)[C@H](O)C231 (stereo partly drawn) [compound 18, Bilobalide] |  |  |  | percent inhibition at 100 µM (human MAGL): 97.8%; percent inhibition of ABHD6 at 100 µM (human ABHD6): 99.5%; percent inhibition at 100 µM (human ABHD12): 83%
